Results on four compounds are retold here after patent publication US8853245B2, “Orally bioavailable dabigatran prodrugs for the treatment of diseases” (Dritte Patentportfolio Beteiligungsgesellschaft mbH & Co. KG, priority 2011, dated 2014).

Data set [1] in a line: Stability analysis at various pH values (phosphate buffer, HPLC). The format is physicochemical. The following applies: acidic medium (<pH 6). The method, then: A 0.2 mM solution of dabigatran amidoxime succinic acid ester (1) was prepared in 50 mM of a potassium phosphate buffer for the stability analyses. The examination took place at pH values of 2.0, 4.0, 6.3, 7.4 and 9.0. One sample was taken and immediately analyzed by HPLC every 30 min over a period of 360 min.

Data set [2] in a line: Solubility in phosphate buffer at various pH values. The following applies: pH 2.0, preliminary test runs. The format is physicochemical.
Experiment in data set [3]: as above
The following applies: shaken 10 min; for solubility at 10 min: aqueous buffer, thermodynamic from solid. The format is physicochemical. How it is done: An amount of the dabigatran amidoxime succinic acid ester (1) which is insoluble in 150 μl was dissolved in 50 mM of a phosphate buffer (pH 6.3, pH 7.4, respectively pH 9.0) and shaken for 10 min. Solubility was not determined at the 4.0 and 2.0 pH values due to the rapid hydrolysis of the succinyl ester at acidic pH values. 3 N HCl, respectively 10% KOH, was used to adjust the pH value. After the 10 min period, the undissolved portion was removed by centrifugation (13,000 RPM, 10 min) and the samples were immediately measured by HPLC. The evaluation of the solubility ensued via a calibration of dabigatran amidoxime succinic acid ester (1) (Table 1). Dabigatran etexilate and dabigatran amidoxime (2) were examined by comparison so as to be able to better judge the solubility as compared to previously described derivatives. Solubilities were determined analogously to the method described for compound (1).

Details of data set [4]: species or system rats. The following applies: rat, in vivo. How it is done: Dabigatran was administered intravenously to 20 rats in a concentration of 10 mg/kg. Dabigatran amidoxime succinic acid ester (1), dabigatran amidoxime (2), and dabigatran etexilate were administered to 10 rats each in a concentration of 50 mg/kg as a suspension with Arabic gum (10% m/V) per gavage. 100 mM of potassium phosphate buffer of pH 9.0 was used with the dabigatran amidoxime succinic acid ester (1) in preparing the suspension so as to prevent premature cleavage of the succinyl ester in the acidic environment of the stomach. In addition, 3 rats were given dabigatran at a dosage of 50 mg/kg per gavage in order to determine the oral bioavailability of the active form itself.
After the intravenous administration, plasma samples were taken after 5, 10, 25, 50, 100, 200, and 400 min, respectively 30, 60, 90, 120, 240, 360, and 480 min after oral administration. For this purpose, 300 μl of whole blood was drawn using an insulin syringe and transferred into EDTA-coated CB 300 microvettes (Sarstedt, Nümbrecht). After each withdrawal, the sample was rinsed with 100 μl of 0.9% saline solution respectively with heparin solution (250 I.E./ml) at an interval of 60 min. The blood sample was briefly shaken and placed on ice until centrifugation (4° C.; 14,000 RPM; 10 min). The samples were stored further at −80° C.
The plasma samples were defrosted at room temperature. 5 μl of 1N HCl was prepared in each case and 55 μl of the plasma samples added by pipetting. The samples were subsequently shaken for 45 min in order to cleave the existing glucuronides. The plasma proteins were then precipitated with 55 μl of methanol and shaken for a further 30 min. The samples were centrifuged at 10,000 RPM for 15 min and the supernatant was transferred into HPLC vials. 10 μl was used in each case for the HPCL determinations.
Calibrations and analyses for recovering the dabigatran were performed in a phosphate buffer of pH 7.4, murine plasma respectively, so as to quantitatively evaluate the plasma samples.
The bioavailability of the different dabigatran prodrugs was calculated by means of the PK Solutions 2.0™ program using the plasma concentrations. Furthermore, the plasma half-life t1/2, the time of maximum plasma level tmax, as well as the maximum plasma concentration cmax were calculated.

The nature of data set [5]: Dabigatran in organ samples (liver and kidney) after oral administration. The format is in vivo. The following applies: rats, oral 50 mg/kg, 8 hours after administration. The method, then:
Slaughter ensued by guillotine decapitation 8 hours after the drug administration. The organs were subsequently removed. All organs were cleaned and frozen in 2-methylbutane cooled in dry ice. Liver, kidney, lung, spleen, heart, and brain were removed.
The organs were defrosted at room temperature and weighed. Depending on the respective organ, differing amounts of the tissues were prepared. About 1000 mg were used in case of the liver samples; about 500 mg in case of the kidney samples. Liver and kidney were examined since both organs participate in the activation of the prodrug and increased concentrations of dabigatran can therefore occur in same. Other organs are irrelevant for the bioactivation and were therefore not examined.
The organ samples (liver and kidney) were minced by means of a potter. For this purpose, each of the weighed tissues were minced with 1 ml aqua bidest for 5 min. The potter vessel was subsequently rinsed in each case with 1 ml of aqua bidest. The samples were transferred into reaction vessels and the same volume of acetonitrile was added in order to precipitate proteins. The samples were shaken for 45 min and subsequently centrifuged at 12,000 RPM for 15 min. […]
The solubilizing of the samples ensued with 400 μl of a mixture of methanol/aqua bidest (50/50). […] The concentration of dabigatran was determined from the supernatant by means of HPLC.

The target in data set [6] is albumin (Homo sapiens, UniProt P02768). In words: Plasma protein binding (4% albumin solution, ultrafiltration). The format is in vitro ADME. The following applies: 10, 25 and 50 μM, 15 min at 37° C. How it is done:
The plasma protein binding was determined at three different concentrations (10, 25, and 50 μM). A 4% albumin solution was used as the protein solutions. 50 μl of a 10 times concentrated substance solution were in each case pipetted to 450 μl of the protein solution. Incubation ensued over 15 min in a shaking water bath at 37° C. Subsequently, the samples were transferred into ultrafiltration units (Vivaspin 500, 10 kDa cut off) and centrifuged for 15 min at 10,000 RPM. The filtrate was analyzed by HPLC. Additionally, a control which was not mixed with protein nor centrifuged was carried out for each concentration. A further control without protein addition which, however, was centrifuged by the filtration unit served to validate the methodology.

Data set [7] can be described thus: Stability (ester hydrolysis) in human plasma. The format is in vitro ADME. The following applies: 0.2 mM, 37° C., up to 150 min, listed as dabigatran amidoxime succinic acid ester (1). The method, then:
(§1) Further analyses were conducted with human and murine plasma. 900 μl of the plasma was mixed with 100 μl of a 2 mM solution of dabigatran amidoxime succinic acid ester (1). The final concentration of dabigatran amidoxime succinic acid ester (1) was thus 0.2 mM. The samples were incubated at 37° C. in a shaking water bath and samples were taken after 0, 15, 30, 45, 60, 90, 120 and 150 min. For this purpose, 100 μl was drawn in each case and mixed with 100 μl acetonitrile. The samples were shaken, centrifuged for 5 min and the supernatant was measured via HPLC. The results are illustrated in FIGS. 2 and 3.

Data set [8] can be described thus: Stability (ester hydrolysis) in murine plasma. The format is in vitro ADME. The following applies: 0.2 mM, 37° C., up to 150 min, listed as dabigatran amidoxime succinic acid ester (1). How it is done: as §1
For data set [9] the following is noted: etexilate data from the literature; cited from earlier work.

Broadly, the solubility is the dissolved amount per volume that the medium holds. A higher solubility goes with much dissolved substance. As a reminder, the bioavailability is dose-corrected exposure relative to a reference, in per cent. A lower bioavailability goes with poor availability. For orientation: Cmax means the highest concentration seen after dosing. As a reminder, the fraction unbound is the share of the substance not bound to proteins or other matrix. Read a low fraction unbound as little free substance.

≈ marks a conversion by molar mass, not a printed value. Entries after “also recorded” stand apart in the source; their conditions may differ. Like-named read-outs stand apart in the source and are kept apart here.

Sequence of albumin (P02768 25-609, species assumed): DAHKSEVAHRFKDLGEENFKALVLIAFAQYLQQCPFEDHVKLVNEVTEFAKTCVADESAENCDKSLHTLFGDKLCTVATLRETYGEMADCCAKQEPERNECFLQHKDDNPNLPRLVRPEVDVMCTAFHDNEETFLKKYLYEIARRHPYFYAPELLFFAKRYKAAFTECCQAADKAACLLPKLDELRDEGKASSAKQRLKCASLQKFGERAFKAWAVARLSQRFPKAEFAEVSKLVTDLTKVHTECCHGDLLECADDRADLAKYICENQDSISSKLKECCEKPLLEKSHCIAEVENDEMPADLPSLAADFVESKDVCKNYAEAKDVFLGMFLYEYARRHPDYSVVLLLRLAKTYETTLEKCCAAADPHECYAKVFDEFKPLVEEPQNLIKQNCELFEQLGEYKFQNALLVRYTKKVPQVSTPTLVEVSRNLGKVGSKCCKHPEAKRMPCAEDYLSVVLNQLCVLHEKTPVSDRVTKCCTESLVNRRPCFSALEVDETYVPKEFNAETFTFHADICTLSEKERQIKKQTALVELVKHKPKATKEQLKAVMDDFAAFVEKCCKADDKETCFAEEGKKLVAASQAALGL

As for `CCOC(=O)CCN(C(=O)c1ccc2c(c1)nc(CNc1ccc(/C(N)=N/OC(=O)CCC(=O)O)cc1)n2C)c1ccccn1`, the “stability in acidic medium” value in data set [1] is reported as “rather instable”. In [2], the “solubility in acidic medium” value was “good solubility”. For the same compound, in [3] (pH 6.3, 50 mM phosphate buffer), the solubility at 10 min came out at 630 ± 290 µM (≈ 388 µg/mL). The solubility at 10 min in data set [3] (pH 7.4, 50 mM phosphate buffer) worked out at 4620 ± 830 µM (≈ 2840 µg/mL). For the same compound, in data set [3] (pH 9.0, 50 mM phosphate buffer), the solubility at 10 min amounted to 8160 ± 440 µM (≈ 5020 µg/mL). Moreover, the bioavailability in data set [4] was 5.5%±1.7%. In addition, in [4] (po, 50 mg/kg), the Cmax amounted to 2770 ± 550 nM, the “maximum plasma concentrations (range)” value lay in the range of 1.8 to 3.7 µM, the “period of detectable dabigatran plasma levels” value was 480 min and the “prodrug itself in plasma” value is reported as “could not be identified”. Moreover, in [4] (po, 50 mg/kg), the t1/2 is listed as 69.3 ± 30.4^+ min, the “time at which maximum plasma concentrations were reached (range)” value (shortened to “time”) was 30 to 60 min and the tmax is listed as 48.0 ± 15.5^+ min. In [5], the “dabigatran concentration in liver samples compared to other prodrugs” value is “clearly lower”; the “dabigatran detected in liver and kidney” value is “small amounts”. This compound also had a fraction unbound at 15 min in data set [6] of around 0.78. In data set [6] (listed as dabigatran amidoxime succinic acid ester (1)), this compound returned a plasma protein binding of 21.8±5.3%. In addition, the “hydrolysis of the ester bond in plasma” value in data set [7] was “pronounced hydrolysis of the ester bond; also recorded: very marked ester cleavage”. The “hydrolysis of the ester bond in plasma” value in data set [8] was “pronounced hydrolysis of the ester bond; also recorded: very marked ester cleavage”.

`Cn1c(CNc2ccc(C(N)=NO)cc2)nc2cc(C(=O)N(CCC(=O)O)c3ccccn3)ccc21` [Dabigatran amidoxime (2)]: the solubility in data set [3] (pH 6.3, 50 mM phosphate buffer) amounted to 145 ± 16 µM (≈ 70.7 µg/mL). The compound also registered a solubility in data set [3] (pH 7.4, 50 mM phosphate buffer) of 119 ± 5 µM (≈ 58 µg/mL). The solubility in data set [3] (pH 9.0, 50 mM phosphate buffer) was determined as 111 ± 8 µM (≈ 54.1 µg/mL). Besides, in data set [4], the bioavailability is 4.1 ± 1.4 %. In [4] (po, 50 mg/kg), the Cmax stood at 2760 ± 1060 nM, the “maximum plasma concentrations (range)” value lay within 1.7 to 5.5 µM, the “period of detectable dabigatran plasma levels” value was found to be 480 min and the “prodrug itself in plasma” value is reported as “could not be identified”. Besides, in data set [4] (po, 50 mg/kg), the t1/2 is given as 108.1 ± 56.2^+ min, the “time” value lay in the range of 30 to 60 min and the tmax was 36.0 ± 12.6 min. This compound also gave a plasma protein binding in data set [6] of 31.2±1.3%.

Regarding `CCCCCCOC(=O)NC(=N)c1ccc(NCc2nc3cc(C(=O)N(CCC(=O)OCC)c4ccccn4)ccc3n2C)cc1` [Dabigatran etexilate], the “bioavailability described in the literature” value in data set [9] is given as 5-8%. The same compound registered a solubility at 10 min in data set [3] (pH 6.3, 50 mM phosphate buffer) of 3.6 ± 2 µM (≈ 2.26 µg/mL). Also, the solubility at 10 min in data set [3] (pH 7.4, 50 mM phosphate buffer) was 0.6 ± 0.4 µM (≈ 0.377 µg/mL). Besides, the solubility at 10 min in data set [3] (pH 9.0, 50 mM phosphate buffer) stood at 0.4 ± 0.1 µM (≈ 0.251 µg/mL). The bioavailability in data set [4] is 7.2%±2.0%. In data set [4] (po, 50 mg/kg), the maximum concentration (Cmax) was 3480 ± 640 nM, the “maximum plasma concentrations (range)” value lay within 2.3 to 4.5 µM, the “period of detectable dabigatran plasma levels” value is 480 min and the “prodrug itself in plasma” value is “could not be identified”. In [4] (po, 50 mg/kg), the t1/2 is recorded as 87.7 ± 27.5 min, the “time” value fell in the range of 30 to 90 min and the tmax was 57.0 ± 22.1 min.

`[H]/N=C(/N)c1ccc(NCc2nc3cc(C(=O)N(CCC(=O)O)c4ccccn4)ccc3n2C)cc1` [Dabigatran]: the “period of detectable plasma levels” value in data set [4] (iv, 10 mg/kg) is 400 min. For the same compound, in data set [4] (po, 50 mg/kg), the peak level (Cmax) was 240 ± 130 nM, the bioavailability is given as 0.3 ± 0.2 %, the t1/2 is 58.0 ± 31.1^+ min and the tmax was 105.0 ± 21.2 min.
